# Experimental data from a melting point compilation (Tetko et al.; mined from patent text by program, amines drawn as free bases though some values may be those of a salt).
row,Structure (SMILES),melting point [°C]
1,CCSCC(=O)N1CCSC1COc1ccc(OC)cc1 (centres undefined),98 to 110
2,COc1ccc2c(C(=O)C=[N+]=[N-])nn(Cc3ccc(Cl)c(Cl)c3)c(=O)c2c1,129 to 130
3,CC(C)Cn1c(=O)c2nc(-c3ccc(/C=C/C(=O)O)cc3)[nH]c2n(CC(C)C)c1=O,> 300
4,CC(C)(N)CNS(=O)(=O)c1ccccc1,152 to 153
5,O=c1ccnc(NCCCN(Cc2ccccc2)c2ccccn2)[nH]1,162 to 163
6,O=C(Nc1c[nH]nc1C(=O)Nc1ccccc1)c1ccccn1,281 to 282
7,CCOC(=O)[C@H](CCc1ccccc1)N[C@@H](C)C(=O)N1N=C(c2ccccc2)S[C@H]1C(=O)O,180 to 182
8,COc1ccc(F)c2c1OC(CN1CC(C)(C)Cn3c1nc(-c1ccncn1)cc3=O)CC2 (racemic),136 to 138
9,COc1ccc2[nH]c(C)c(Cc3cc(=O)n(C4CCCCC4)[nH]3)c2c1,99 to 101
10,Cc1c(C)n(CC=Cc2ccccc2)c2c(OCc3ccccc3)nncc12,132 to 134
11,CC(C)(C)OCC1C(=O)C(C)(C)C(=O)N1c1ccc(C#N)c(Cl)c1 (centres undefined),124 to 125
12,COc1cc(NC(=O)OCc2ccccc2)c(Cl)cc1-c1n[nH]c(=O)o1,214
13,CC(C)=CCC(O)C(C)C1CC=C2C3=C(CCC21C)C1(C)CCC(O)C(C)(C)C1CC3 (centres undefined),70 to 72
14,CCCC(c1cc(C(=O)Nc2ccccc2)ccc1OCc1ccc(Br)cc1)n1ccnc1 (centres undefined),159 to 166
15,O=C(NC1CC1)c1cc(Nc2nc(N3CCCC3c3ccccn3)nc3ccoc23)[nH]n1 (centres undefined),238
16,CS(=O)(=O)c1ccc(/C=C/c2nc3ccccc3n2-c2ccccn2)cc1,152 to 154
17,CCc1[nH]n(C2CCCC2)c2nc(Cc3ccc(OC)c(OC)c3)nc(=O)c1-2,148 to 149
18,Nc1nccc(-c2c[nH]c3nccc(OC4CCCCC4)c23)n1,> 210
19,O=C1CN(c2nccnc2[N+](=O)[O-])CCN1,178 to 179
20,CC1(C)CCC(C#N)(Cc2ccc(Cl)cc2)C1=O (centres undefined),101 to 103
21,COc1ccc(S(=O)(=O)N(CC(C)C)CC(O)C(Cc2ccccc2)NC(=O)C(C)CS(C)(=O)=O)cc1OC (centres undefined),130 to 133
22,CCCO[C@@H](Cc1ccc(OCCc2nc(-c3ccc(-c4ccccc4)cc3)oc2C)c2ccsc12)C(=O)O,147 to 151
23,COc1ccc(CC2CCN(C(=O)C(=O)Nc3ccc4c(c3)CC(=O)N4)CC2)cc1,215 to 217
24,Cc1ccc(-c2nc(COc3ccc(CCCCn4ccnc4)cc3)co2)s1,82 to 83
25,OCC1OC(SCCCc2ccccc2)C(O)C(O)C1O (centres undefined),122 to 123
26,N#CC(=NO)c1c(F)cccc1Cl,119 to 120

row,Structure (SMILES),melting point [°C]
1,CSC1NC(=O)N(C)C(=O)N1N=C(C)C (centres undefined),130 to 132
2,C=CCc1cc2c(c(CC=C)c1O)CCC(=O)N2CC=C(C)C,133 to 135
3,Nc1ccc2c(c1)ncn2-c1cccc(-c2cccnc2)c1,172 to 175
4,CCOCc1nc2c(N)nc(C)c(C)c2n1CCOCCCc1nccs1,91 to 92
5,C=CCn1c(-c2cccnc2)nn(CCCCN2CCN(c3ccccc3OC)CC2)c1=O,71 to 75
6,ClCSc1c(Cl)c(Cl)cc(Cl)c1Cl,81 to 82
7,O=c1cnn(-c2ccc(C(c3ccc(Cl)cc3)c3nc(-c4ccccc4)cs3)c(Cl)c2)c(=O)[nH]1 (centres undefined),90
8,CC(C)n1c(=O)n(C(=O)NCC2CCN(CC3(C(=O)O)CCOCC3)CC2)c2ccccc21,176
9,CCCc1c(SCCCOc2ccc3c(=O)cc(C(=O)OCC)oc3c2CCC)ccc(C(C)=O)c1N,103 to 104
10,COC(=O)CCCc1cc2cc(Cl)ccc2n1S(=O)(=O)c1cccc2nc(C)sc12,129
11,CC(C)CC(=O)Nc1cccc(-c2ccnc3c(C(=O)c4ccsc4)cnn23)c1,137 to 139
12,CCSc1cc(C)nc(SCC)c1NC(=O)CCCCCCSc1nc2ccccc2[nH]1,151 to 156
13,CCC(=O)OCC=C(C)CCC=C(C)CCC=C(C)CCC=C(C)CCC=C(C)CCC=C(C)CCC=C(C)CCC=C(C)CCC=C(C)C,33 to 35
14,CCCCc1ccc(C(=O)Nc2cc(CCCC)c(NC(=O)c3ccc(CCCC)cc3)c3c2C(=O)c2ccccc2C3=O)cc1,180 to 181
15,CN1CCN(c2ccc(Cl)nn2)CC1,106 to 107
16,Cc1ncn(-c2ccc(C#N)c(F)c2)n1,133 to 134
17,CN(C)C(=O)Oc1ccc2c(NCCN3CCOCC3)noc2c1,150
18,CN(C)CC(=O)N1CC(=Cc2ccccc2)C2=NN(C)C(c3ccccc3)C2C1 (centres undefined),132 to 134
19,O=C(CSCCN1C(=O)c2ccccc2C1=O)c1ccc(F)cc1,124 to 126
20,CN1C(=O)c2c(n3ccnc3c3c2c2cccnc2n3C2OC(CO)C(O)C(O)C2O)C1=O (centres undefined),298
21,CCC(C(=O)C(C)C(O)C(C)CCc1c(NC(C)=O)cc(C)c(O)c1C(=O)O)C1OC(CC)(C2CCC(O)(CC)C(C)O2)CC1C (centres undefined),189 to 190
22,CCCCCC1(C(=O)Oc2ccc(C(=O)O)cc2)CC2=C(C1)C(C)(C)CCC2(C)C,156 to 158
23,CC(C)Oc1cc(-n2c(=O)[nH]c(CF)c(F)c2=O)c(F)cc1Cl,152 to 154
24,CCCO[C@H]1CC[C@H](c2cnc(-c3ccc(C#N)cc3)nc2)CC1,114
25,CC1(C)CCCC(NC(=O)OC(C)(C)C)C(=O)N1 (centres undefined),118 to 120

# Results, then the compound that gave them:
row,melting point [°C],Structure (SMILES)
1,104 to 105,O=[N+]([O-])c1cc(F)c(N2CCSCC2)c(F)c1
2,201 to 202,O=C(NCCCO)c1ccnc2ccccc12
3,187 to 189,Cc1nc(N2CCN(Cc3ccc(F)cc3)C2=O)sc1C(=O)NCc1ncco1
4,172,CCc1ccc(S(=O)(=O)n2c(COC(C)(C)C(=O)O)cc3nc(Cl)ccc32)cc1
5,89.5 to 90.5,Cc1cc(C(O)(C(F)(F)F)C(F)(F)F)ccc1O
6,81 to 82,COC(=O)[C@@H]1[C@H](NCc2cc(OC(F)(F)F)ccc2OC)[C@H](c2ccccc2)N[C@@H]1C (relative stereo)
7,162 to 165,COc1cc(C)c(C(O)c2c(Cl)cnc(Cl)c2C(F)(F)F)c(OC)c1OC (centres undefined)
8,172 to 174,Cc1cc(C)nc(NC(C(=O)O)C(c2ccccc2)c2ccccc2)n1 (centres undefined)
9,150 to 151,Cc1ccn2cc(CCc3ccc4nc(N=CN(C)C)oc4c3)nc2c1
10,215 to 228,O=C(O)c1ccc2c(c1)C(=O)C1(CC1)O2
11,141 to 142,Cc1ccc2c(Br)c(Cl)cc([N+](=O)[O-])c2n1
12,147 to 148,COC(=O)c1c(C(=O)OC)c(-c2ccc(OC)c(OC)c2)c2sccc2c1O
13,118 to 120,O=C(C(=O)C12CC3CC(CC(C3)C1)C2)c1ccc(OC(F)F)cc1
14,141 to 145,CSc1ccc(NC(=O)NCc2cc(C(C)(C)C)c(O)c(C(C)(C)C)c2)cc1
15,146 to 149,CCOC(=O)C1=C(NC(=O)Nc2cc(C(=O)OC(C)C)c(Cl)cc2F)CCC1
16,124,C=C(C)c1ccc(O)c(-n2nc3ccccc3n2)c1
17,285 to 287,O=S1(=O)N=CN(C2CC2)c2cc(Br)cc(F)c21
18,247 to 252,CC(C)(C)c1cc(NC(=O)C2CCCCC2C(=O)O)cc(C(C)(C)C)c1O (centres undefined)
19,158,COC=Nc1c(S(=O)(=O)C(F)(F)F)c(-c2ncon2)nn1-c1c(Cl)cc(C(F)(F)F)cc1Cl
20,267 to 270,Cc1ccc2cccc(OCc3c(Cl)ccc(C(=O)O)c3Cl)c2n1
21,318 to 319,COc1ccc2c(=O)c3[nH]cc(C(=O)O)c(=O)c3oc2c1
22,143 to 145,CSc1ccc(-c2cc(C(F)F)nn2-c2ccc(C(C)=O)cc2)cc1
23,175 to 176,CCC(=O)N=c1sc2cccc(C)c2n1N
24,124 to 126,CCN1CC(=O)N(c2c(C)cccc2Cl)C1=S

row,melting point [°C],Structure (SMILES)
1,82 to 83,O=C(Nc1ccc(-n2cccn2)c(F)c1)OCc1ccccc1
2,141 to 143,CC(C)(C)C(O)C(=Cn1ccnc1)Oc1ccc(Cl)cc1 (centres undefined)
3,188,Cc1nc2ccccn2c1-c1csc(Nc2ccc(C(=O)NO)cc2)n1
4,75 to 80,CCCc1cccc2cc(C(=O)O)oc12
5,154 to 155,CSc1cc2c(cc1C(F)(F)F)N(C(=O)Nc1cccc(-c3csc(-c4cccnc4)n3)c1)CC2
6,67 to 69,CCOC(=O)c1cnn(-c2ccc(Cl)cc2C(F)(F)F)c1Cl
7,170 to 174,NS(=O)(=O)c1cccc(S(=O)(=O)NC2CC2)c1
8,215 to 220,O=C(NC(=O)c1c(F)cccc1F)Nc1ccc(C(F)(F)F)cn1
9,89 to 91,CCOC(=O)c1cnc(-c2ccccc2OCC(C)C)[nH]c1=O
10,92 to 96,COC(=O)c1ccc(C(O)COc2ccc3c(c2)C(C)(C)CCC3(C)C)cc1 (centres undefined)
11,159 to 161,CCOC(=O)c1c[nH]c(=S)n1C1CCc2c(F)cc(F)cc2C1 (centres undefined)
12,67 to 71,CC(C)(O)c1ccc(Cl)nc1
13,217 to 218,CCOC(=O)c1cccc(-c2coc3cc(O)c(O)cc3c2=O)c1
14,174,CNS(=O)(=O)c1cccc(-c2cc(-c3nc(-c4ccc(C(F)(F)F)cc4)cc(C(F)(F)F)n3)ccn2)c1
15,183 to 185,CCOC(=O)C1C(=O)CC(C)(O)C(C(=O)OCC)C1c1ccc2c(C)c(C)oc2c1 (centres undefined)
16,84.5 to 86,ClC(=NNc1cc(Cl)ccc1Cl)c1ccccc1
17,64 to 87,CN1C(=O)CC[C@]2(C)c3ccc(-c4cccc(C(F)(F)F)c4)cc3CC[C@@H]12
18,100 to 101,Nc1cc(N2CCCCC2)ccc1[N+](=O)[O-]
19,174 to 176,CCC1C(=O)N2C(C(=O)OCc3ccc([N+](=O)[O-])cc3)=C(CCNC(C)=O)CC12 (centres undefined)
20,108 to 111,CN(C)C=C(SCCN1C(=O)c2ccccc2C1=O)C(=O)c1ccc(F)cc1
21,258 to 260,COc1ccc2cc3c(Cl)c(C#N)cnc3cc2c1
22,74.5 to 75,N#Cc1cccc2c1CCc1ccsc1-2
23,108,C=CCNC(=O)N1CC(OCc2cccc(C(F)(F)F)c2)C1
24,77 to 79,O=C(c1ccccc1)c1ccc([N+](=O)[O-])c(F)c1
